Holding throughout (assay): growth of human tumour cells (NCI), 48 h
Assay [1] concerns A498.
Assay [2] concerns ACHN.
Assay [3] concerns EKVX.
The subject of assay [4] is HL-60.
Assay [5] relates to LOX IMVI.
Assay [6] concerns MDA-MB-231.
Assay [7] concerns MDA-MB-435.
The test system of assay [8] is MDA-N.
For assay [9], the system named is NCI-H226.
In assay [10] the test system is NCI-H23.
Assay [11] relates to NCI-H460.
The subject of assay [12] is NCI-H522.
Assay [13] deals with OVCAR-3.
In assay [14] the test system is OVCAR-4.
In assay [15] the test system is OVCAR-5.
Assay [16] relates to SN12C.
Assay [17] has as its system TK-10.
The subject of assay [18] is U-251.
In assay [19] the test system is SNB-75.
Assay [20] has as its system SF-539.

Molecules are shown by their SMILES.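 Grown in 96-well plates, cells were treated for 48 hours with each compound at five concentrations. Insufficient inhibition: endpoint recorded as highest concentration tested. GI50 marks 50% less growth.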 Calls of active or inactive are those of the source. No stated cut-off is given here; in the data, active = GI50 up to about 1.1 µM and inactive = higher.

For `CN(C)CCNc1ccccn1`, the GI50 in assay [1], in assay [2], in [3], in [4], in [5] and in assay [6] was > 100 µM (inactive) each time. The GI50 in assay [7], in assay [8], in assay [9], in assay [10], in assay [11] and in [12] was > 100 µM (inactive) each time. Further, the GI50 in assay [13], in assay [14], in assay [15], in assay [16], in [17] and in assay [18] was > 100 µM (inactive) in each case.
On to `COc1ccc2c(C)cc(=O)oc2c1OC`, for which the GI50 in assay [1], in assay [2], in [3], in assay [5], in assay [6] and in [7] was > 100 µM (inactive) in each case. Further, the GI50 in [8], in assay [9], in [10], in assay [13], in assay [14] and in assay [15] was > 100 µM (inactive) in each case. Further, the GI50 in assay [16], in assay [19], in assay [17] and in assay [18] was > 100 µM (inactive) throughout.
On to `O=C(O)C#Cc1ccc([N+](=O)[O-])cc1`, for which the GI50 in assay [1], in assay [2], in assay [3], in assay [4], in assay [5] and in [6] was > 100 µM (inactive) throughout. Moreover, the GI50 in [7], in assay [8], in assay [9], in assay [10], in assay [11] and in [13] was > 100 µM (inactive) throughout. The GI50 in [14], in assay [15], in assay [20], in assay [16], in [17] and in [18] was > 100 µM (inactive) in each case.
Take `CC(=O)c1ccc2c(c1)oc(=O)n2CCN1CCCCC1`: the GI50 in assay [1], in assay [2], in assay [3], in [4], in assay [5] and in [6] was > 100 µM (inactive) throughout. Further, the GI50 in [7], in [8], in assay [9], in assay [10], in assay [11] and in assay [13] was > 100 µM (inactive) throughout. The GI50 in assay [15], in assay [20], in assay [16], in [17] and in assay [18] was > 100 µM (inactive) each time.
In the case of `N#Cc1nc(-c2ccccn2)oc1N`, the GI50 in [1], in [2], in assay [3], in assay [4], in assay [5] and in assay [6] was > 100 µM (inactive) throughout. Further, the GI50 in assay [7], in assay [8], in [9], in assay [10], in assay [11] and in [12] was > 100 µM (inactive) each time. In addition, the GI50 in assay [13], in assay [14], in assay [15], in [16], in assay [17] and in assay [18] was > 100 µM (inactive) each time.
With `Cc1nn(-c2ccccc2)c2nc3c(c(C)nn3-c3ccccc3)c(-c3ccc(C(F)(F)F)cc3)c12`, the GI50 in [1], in assay [2], in [3], in assay [4], in [5] and in assay [6] was > 100 µM (inactive) in each case. Moreover, the GI50 in [7], in [8], in assay [9], in [10], in [11] and in assay [13] was > 100 µM (inactive) each time. The GI50 in assay [14] is > 100 µM (inactive); in assay [15], > 100 µM (inactive); in assay [20], 72.3 µM (inactive); in [16] it was > 100 µM (inactive); in assay [19], 39.4 µM (inactive); in assay [17], > 100 µM (inactive). In addition, the GI50 in assay [18] is > 100 µM (inactive).
As for `Cn1c(=O)c2c(ncn2CCCCOc2ccc3c(c2)[n+]([O-])nc(N)[n+]3[O-])n(C)c1=O`, the GI50 in assay [3] is 28.7 µM (inactive); in [4], 34.9 µM (inactive); in assay [5] it was 30.7 µM (inactive); in [6], 30.5 µM (inactive); in assay [7] it was 11.8 µM (inactive); in assay [8] it was 26.1 µM (inactive). The GI50 in assay [9] was 19.4 µM (inactive); in [10], 12.4 µM (inactive); in assay [11], 31 µM (inactive); in assay [12], 16.4 µM (inactive); in assay [13], 20.4 µM (inactive); in [14], 41.8 µM (inactive). The GI50 in [20] was 21.1 µM (inactive); in assay [16], 37.4 µM (inactive); in [19], 27.9 µM (inactive); in assay [17], 51.6 µM (inactive); in assay [18] it was 18.3 µM (inactive).
Take `COc1ccc(-c2cc(=O)c3c(O)c(OC)c(OC)c(OC)c3o2)cc1` [GARDENIN B]: the GI50 in assay [2] is > 100 µM (inactive); in [3], > 100 µM (inactive); in [4], 0.863 µM (active); in [5], 17.6 µM (inactive); in assay [6] it was 12.6 µM (inactive); in assay [7] it was 0.431 µM (active). Also, the GI50 in assay [8] is 0.433 µM (active); in assay [9] it was > 100 µM (inactive); in assay [10], > 36.3 µM (inactive); in [11], 24.9 µM (inactive); in assay [12] it was 6.58 µM (inactive); in assay [13], 6.47 µM (inactive). Further, the GI50 was > 100 µM (inactive) in [14]; 98.6 µM (inactive) in assay [15]; > 61.7 µM (inactive) in assay [20]; > 100 µM (inactive) in assay [16]; 10.2 µM (inactive) in [19]; 26.2 µM (inactive) in [17]. The GI50 in assay [18] was 15.5 µM (inactive).

The record behind these values is ChEMBL document CHEMBL1201862, “PubChem BioAssay data set” (2004).
